Measured values reported in ChEMBL document CHEMBL5625174, “Are inhibitors of histone deacetylase 8 (HDAC8) effective in hematological cancers especially acute myeloid leukemia (AML) and acute lymphoblastic leukemia (ALL)?” (Eur J Med Chem, 2023).

Key:
MOLT-4 = assay: Cytotoxicity against human MOLT-4 cells assessed as reduction in cell viability; format: functional, cell-based
U-937 = assay: Cytotoxicity against human U-937 cells assessed as reduction in cell viability; format: functional, cell-based
Jurkat E6.1 = assay: Cytotoxicity against human Jurkat E6.1 cells assessed as reduction in cell viability; format: functional, cell-based
Histone deacetylase 8 = molecular target: T1, Histone deacetylase 8 (Homo sapiens, UniProt Q9BY41); assay: Inhibition of HDAC8 (unknown origin) by fluorescence based assay
T1 sequence (Q9BY41 whole entry): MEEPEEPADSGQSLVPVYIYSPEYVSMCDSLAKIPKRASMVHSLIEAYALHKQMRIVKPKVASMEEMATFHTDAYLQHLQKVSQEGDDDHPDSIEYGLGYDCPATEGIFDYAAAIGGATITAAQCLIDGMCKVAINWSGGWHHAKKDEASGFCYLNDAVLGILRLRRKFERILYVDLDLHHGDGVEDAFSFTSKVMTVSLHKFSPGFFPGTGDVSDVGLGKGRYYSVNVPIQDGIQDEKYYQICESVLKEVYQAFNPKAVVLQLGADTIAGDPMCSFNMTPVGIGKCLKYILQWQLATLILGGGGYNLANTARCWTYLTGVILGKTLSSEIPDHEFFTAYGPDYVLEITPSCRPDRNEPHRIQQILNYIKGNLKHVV

Histone deacetylase = assay: Inhibition of HDAC (unknown origin) using Fluoro-Substrate Peptide as substrate by fluorescence assay; format: protein assay, Homo sapiens

SMILES	IC50 (MOLT-4)	IC50 (U-937)	IC50 (Jurkat E6.1)	IC50 (Histone deacetylase 8)	IC50 (Histone deacetylase)
CCCCCNC(=O)[C@H](CCC(=O)O)NC(=O)Cc1ccccc1Br	< 35 µM	> 35 µM	> 35 µM	–	–
COc1ccc(CC(=O)N[C@@H](CCC(=O)O)C(=O)NC(C)(C)C)cc1	> 35 µM	> 35 µM	> 35 µM	–	–
COc1ccc(CC(=O)N[C@@H](CCC(=O)O)C(=O)NCc2ccccc2)cc1	≤ 35 µM	> 35 µM	≤ 35 µM	–	–
CCCCCNC(=O)[C@H](CCC(=O)O)NC(=O)Cc1ccccc1F	< 35 µM	> 35 µM	< 35 µM	–	–
CCCCNC(=O)[C@H](CCC(=O)O)NC(=O)Cc1ccc(Br)cc1	≤ 35 µM	> 35 µM	≤ 35 µM	–	–
CCCCCNC(=O)[C@H](CCC(=O)O)NC(=O)Cc1ccc(Cl)cc1Cl	< 35 µM	< 35 µM	< 35 µM	–	–
O=C(O)CC[C@H](NC(=O)Cc1ccccc1Br)C(=O)Nc1ccccc1	< 35 µM	> 35 µM	> 35 µM	–	–
CCCCNC(=O)[C@H](CCC(=O)O)NC(=O)Cc1ccccc1	≤ 35 µM	> 35 µM	> 35 µM	–	–
COc1ccc(CC(=O)N[C@@H](CCC(=O)O)C(=O)NCC(C)C)cc1	> 35 µM	> 35 µM	> 35 µM	–	–
CC(C)CNC(=O)[C@H](CCC(=O)O)NC(=O)Cc1ccc(Br)cc1	> 35 µM	> 35 µM	> 35 µM	–	–
CC(C)(C)NC(=O)[C@H](CCC(=O)O)NC(=O)Cc1ccc([N+](=O)[O-])cc1	< 35 µM	> 35 µM	> 35 µM	–	–
CCCCCNC(=O)[C@H](CCC(=O)O)NC(=O)Cc1ccccc1	≤ 35 µM	> 35 µM	≤ 35 µM	–	–
CCCCCCNC(=O)[C@H](CCC(=O)O)NC(=O)Cc1ccccc1Cl	> 35 µM	> 35 µM	> 35 µM	–	–
CC(C)CNC(=O)[C@H](CCC(=O)O)NC(=O)Cc1ccccc1F	≤ 35 µM	> 35 µM	≤ 35 µM	–	–
CC(C)CNC(=O)[C@H](CCC(=O)O)NC(=O)Cc1ccccc1Cl	≤ 35 µM	> 35 µM	≤ 35 µM	–	–
O=C(O)CC[C@H](NC(=O)Cc1ccccc1Cl)C(=O)NCc1ccccc1	≤ 35 µM	> 35 µM	≤ 35 µM	–	–
CC(C)(C)NC(=O)[C@H](CCC(=O)O)NC(=O)Cc1ccccc1	≤ 35 µM	≤ 35 µM	≤ 35 µM	–	–
O=C(O)CC[C@H](NC(=O)Cc1ccc(-c2ccccc2)cc1)C(=O)NC1CCCCC1	< 35 µM	> 35 µM	< 35 µM	–	–
CCCCNC(=O)[C@H](CCC(=O)O)NC(=O)Cc1ccc([N+](=O)[O-])cc1	< 35 µM	> 35 µM	< 35 µM	–	–
CC(C)NC(=O)[C@H](CCC(=O)O)NC(=O)Cc1ccccc1Br	> 35 µM	> 35 µM	> 35 µM	–	–
CC(C)CNC(=O)[C@H](CCC(=O)O)NC(=O)Cc1ccccc1	> 35 µM	> 35 µM	> 35 µM	–	–
Cc1ccccc1CC(=O)N[C@@H](CCC(=O)O)C(=O)Nc1ccccc1	> 35 µM	> 35 µM	> 35 µM	–	–
O=C(O)CC[C@H](NC(=O)Cc1ccc(Cl)cc1)C(=O)NCc1ccccc1	–	–	–	≤ 10 µM	> 10 µM
O=C(O)CC[C@H](NC(=O)Cc1ccc(Cl)cc1)C(=O)NC1CCCCC1	< 35 µM	> 35 µM	< 35 µM	–	–
CCCNC(=O)[C@H](CCC(=O)O)NC(=O)Cc1ccc(Br)cc1	≤ 35 µM	> 35 µM	≤ 35 µM	–	–
CCCCCNC(=O)[C@H](CCC(=O)O)NC(=O)Cc1ccc(Br)cc1	≤ 35 µM	> 35 µM	≤ 35 µM	–	–

SMILES	IC50 (MOLT-4)	IC50 (U-937)	IC50 (Jurkat E6.1)	IC50 (Histone deacetylase 8)	IC50 (Histone deacetylase)
CCCNC(=O)[C@H](CCC(=O)O)NC(=O)Cc1ccccc1	≤ 35 µM	> 35 µM	≤ 35 µM	–	–
CCCNC(=O)[C@H](CCC(=O)O)NC(=O)Cc1ccc(-c2ccccc2)cc1	< 35 µM	> 35 µM	< 35 µM	–	–
CCCCCCNC(=O)[C@H](CCC(=O)O)NC(=O)Cc1ccc2ccccc2c1	≤ 35 µM	> 35 µM	≤ 35 µM	–	–
CCCCCNC(=O)[C@H](CCC(=O)O)NC(=O)Cc1ccccc1Cl	> 35 µM	> 35 µM	≤ 35 µM	–	–
O=C(O)CC[C@H](NC(=O)Cc1ccccc1)C(=O)NC1CCCCC1	> 35 µM	≤ 35 µM	≤ 35 µM	–	–
CC(C)(C)NC(=O)[C@H](CCC(=O)O)NC(=O)Cc1ccc(Cl)cc1	< 35 µM	> 35 µM	< 35 µM	–	–
CC(C)CNC(=O)[C@H](CCC(=O)O)NC(=O)Cc1ccc(-c2ccccc2)cc1	> 35 µM	> 35 µM	> 35 µM	–	–
CC(C)NC(=O)[C@H](CCC(=O)O)NC(=O)Cc1ccc(Cl)cc1	≤ 35 µM	≤ 35 µM	≤ 35 µM	–	–
CC(C)NC(=O)[C@H](CCC(=O)O)NC(=O)Cc1ccccc1	≤ 35 µM	> 35 µM	≤ 35 µM	–	–
CCCCNC(=O)[C@H](CCC(=O)O)NC(=O)Cc1ccc(-c2ccccc2)cc1	< 35 µM	> 35 µM	< 35 µM	–	–
CC(C)NC(=O)[C@H](CCC(=O)O)NC(=O)Cc1ccccc1F	> 35 µM	> 35 µM	> 35 µM	–	–
O=C(O)CC[C@H](NC(=O)Cc1ccccc1F)C(=O)Nc1ccccc1	< 35 µM	> 35 µM	< 35 µM	–	–
CCCCNC(=O)[C@H](CCC(=O)O)NC(=O)Cc1ccccc1Cl	≤ 35 µM	> 35 µM	≤ 35 µM	–	–
O=C(O)CC[C@H](NC(=O)Cc1ccc(Br)cc1)C(=O)NC1CCCCC1	≤ 35 µM	> 35 µM	≤ 35 µM	–	–
CCCCNC(=O)[C@H](CCC(=O)O)NC(=O)Cc1ccc(Cl)cc1Cl	< 35 µM	> 35 µM	< 35 µM	–	–
O=C(O)CC[C@H](NC(=O)Cc1ccc([N+](=O)[O-])cc1)C(=O)NCc1ccccc1	< 35 µM	> 35 µM	< 35 µM	–	–
CCCCCNC(=O)[C@H](CCC(=O)O)NC(=O)Cc1ccc([N+](=O)[O-])cc1	< 35 µM	> 35 µM	< 35 µM	–	–
CCCCCCNC(=O)[C@H](CCC(=O)O)NC(=O)Cc1ccccc1Br	< 35 µM	< 35 µM	< 35 µM	–	–
CCCCCCNC(=O)[C@H](CCC(=O)O)NC(=O)Cc1ccccc1F	< 35 µM	> 35 µM	< 35 µM	–	–
CCCNC(=O)[C@H](CCC(=O)O)NC(=O)Cc1ccccc1F	> 35 µM	> 35 µM	> 35 µM	–	–
CCCNC(=O)[C@H](CCC(=O)O)NC(=O)Cc1ccc(Cl)cc1	> 35 µM	> 35 µM	≤ 35 µM	–	–
O=C(O)CC[C@H](NC(=O)Cc1ccccc1)C(=O)NCc1ccccc1	> 35 µM	> 35 µM	> 35 µM	–	–
CC(C)NC(=O)[C@H](CCC(=O)O)NC(=O)Cc1ccc(-c2ccccc2)cc1	> 35 µM	> 35 µM	< 35 µM	–	–
O=C(O)CC[C@H](NC(=O)Cc1ccccc1)C(=O)Nc1ccccc1	≤ 35 µM	≤ 35 µM	≤ 35 µM	–	–
CC(C)CNC(=O)[C@H](CCC(=O)O)NC(=O)Cc1ccccc1Br	< 35 µM	> 35 µM	< 35 µM	–	–
CCCCNC(=O)[C@H](CCC(=O)O)NC(=O)Cc1ccccc1F	> 35 µM	> 35 µM	< 35 µM	–	–
